System: NCI-H716 cells
Assay: In vitro GLP-1 secretion-accelerating action (active GLP-1 ELISA)
Type: cell-based
Conditions: for Significant difference (p < 0.05) vs control group, amount of active GLP-1 secreted: 1 hour, Student's t-test; for Amount of active GLP-1 secreted (relative value to control group as 100), Average value: after 1 hour, group with no cyclic dipeptide = 100
Protocol: In the Test Examples below, data were represented as average value±standard error. In Test Examples 1, 2, and 3, a Student's t-test was used for a statistical test, and in other Test Examples, one-way ANOVA was carried out for dispersion analysis followed by a multiple comparison test by using a Dunnet's test. […] All of these analyses were carried out by using an SPSS for Windows release 17.0 (manufactured by SPSS Inc.).
Among the cyclic dipeptides, 92 highly water-soluble cyclic dipeptides were used in the following experiment. In each well of a Poly-L-Lysine 96-well plate, NCI-H716 cells suspended in 100 μL of a DMEM (with 10% FBS, 2 mM glutamine, and 1% antibiotics added in advance) were seeded at 0.5×10^5 cells/well, and cultured in a CO2 incubator (manufactured by ESPEC CORP.) for 48 hours. After washing with PBS(+), 100 μL of a PBS(+) solution with each cyclic dipeptide at a final concentration of 10 mM and 10 μM of Sitagliptin phosphate added therein was added to the cells. After 1 hour, the resultant solution was recovered, and the amount of active GLP-1 in the solution was measured by using the ELISA kit. In the analysis, the amount of active GLP-1 for a group with no cyclic dipeptide added was defined as 100, and relative values thereto were used.
In each Table, cyclic dipeptides for which an in vitro active GLP-1 secretion-accelerating activity was found and was not found are listed.

[1] = Experiment 5, cyclic dipeptide 10 mM with 10 μM Sitagliptin phosphate
[2] = Experiment 1, cyclic dipeptide 10 mM with 10 μM Sitagliptin phosphate
[3] = Experiment 2, cyclic dipeptide 10 mM with 10 μM Sitagliptin phosphate
[4] = Experiment 3, cyclic dipeptide 10 mM with 10 μM Sitagliptin phosphate
[5] = Experiment 4, cyclic dipeptide 10 mM with 10 μM Sitagliptin phosphate

Structure (SMILES)	Significant difference (p < 0.05) vs control group, amount of active GLP-1 secreted (Experiment 3, 10 mM)	Amount of active GLP-1 secreted (relative value to control group as 100), Average value [4]	other results
O=C1NCC(=O)N2CCCC12 (stereo not shown) [compound 4]			Significant difference (p < 0.05) vs control group, amount of active GLP-1 secreted (Experiment 5, 10 mM): Yes; Amount of active GLP-1 secreted (relative value to control group as 100), Average value [1]: 157
CC(C)CC1NC(=O)CNC1=O (stereo not shown) [compound 21]			Significant difference (p < 0.05) vs control group, amount of active GLP-1 secreted (Experiment 5, 10 mM): No; Amount of active GLP-1 secreted (relative value to control group as 100), Average value [1]: 131
O=C(O)CCC1NC(=O)CNC1=O (stereo not shown) [compound 24]			Significant difference (p < 0.05) vs control group, amount of active GLP-1 secreted (Experiment 5, 10 mM): No; Amount of active GLP-1 secreted (relative value to control group as 100), Average value [1]: 89
O=C1CNC(=O)C(Cc2c[nH]cn2)N1 (stereo not shown) [compound 27]			Significant difference (p < 0.05) vs control group, amount of active GLP-1 secreted (Experiment 5, 10 mM): No; Amount of active GLP-1 secreted (relative value to control group as 100), Average value [1]: 82
O=C(O)CC1NC(=O)CNC1=O (stereo not shown) [compound 32]			Significant difference (p < 0.05) vs control group, amount of active GLP-1 secreted (Experiment 5, 10 mM): Yes; Amount of active GLP-1 secreted (relative value to control group as 100), Average value [1]: 12
NC(=O)CCC1NC(=O)CNC1=O (stereo not shown) [compound 36]			Significant difference (p < 0.05) vs control group, amount of active GLP-1 secreted (Experiment 5, 10 mM): No; Amount of active GLP-1 secreted (relative value to control group as 100), Average value [1]: 75
NCCCC[C@@H]1NC(=O)[C@H](CCCCN)NC1=O [compound 40]			Significant difference (p < 0.05) vs control group, amount of active GLP-1 secreted (Experiment 1, 10 mM): No; Amount of active GLP-1 secreted (relative value to control group as 100), Average value [2]: 164
O=C(O)CC[C@@H]1NC(=O)[C@@H]2CCCN2C1=O [compound 45]			Significant difference (p < 0.05) vs control group, amount of active GLP-1 secreted (Experiment 1, 10 mM): No; Amount of active GLP-1 secreted (relative value to control group as 100), Average value [2]: 145
O=C1N[C@@H](CO)C(=O)N2CCC[C@@H]12 [compound 46]			Significant difference (p < 0.05) vs control group, amount of active GLP-1 secreted (Experiment 2, 10 mM): No; Amount of active GLP-1 secreted (relative value to control group as 100), Average value [3]: 139
NC(=O)CC[C@@H]1NC(=O)[C@H](Cc2ccccc2)NC1=O [compound 65]			Significant difference (p < 0.05) vs control group, amount of active GLP-1 secreted (Experiment 2, 10 mM): Yes; Amount of active GLP-1 secreted (relative value to control group as 100), Average value [3]: 227
CC(C)C[C@@H]1NC(=O)[C@H](CCCCN)NC1=O [compound 68]			Significant difference (p < 0.05) vs control group, amount of active GLP-1 secreted (Experiment 2, 10 mM): No; Amount of active GLP-1 secreted (relative value to control group as 100), Average value [3]: 208
O=C1N[C@@H](Cc2c[nH]c3ccccc23)C(=O)N[C@H]1CO [compound 78]			Significant difference (p < 0.05) vs control group, amount of active GLP-1 secreted (Experiment 2, 10 mM): No; Amount of active GLP-1 secreted (relative value to control group as 100), Average value [3]: 119
NCCCC[C@@H]1NC(=O)CNC1=O [compound 96]	Yes	133	
NCCCCC1NC(=O)C(CCC(=O)O)NC1=O (stereo not shown) [compound 97]	No	66	
NCCCCC1NC(=O)C(CO)NC1=O (stereo not shown) [compound 98]	Yes	71	
CC(C)C1NC(=O)C(CCCCN)NC1=O (stereo not shown) [compound 99]	Yes	532	
NCCCCC1NC(=O)C(CC(N)=O)NC1=O (stereo not shown) [compound 101]	Yes	250	
NCCCCC1NC(=O)C(CCC(N)=O)NC1=O (stereo not shown) [compound 102]	No	112	
NC(=O)CC1NC(=O)C(Cc2cnc[nH]2)NC1=O (stereo not shown) [compound 111]	Yes	341	
N=C(N)NCCCC1NC(=O)C(Cc2cnc[nH]2)NC1=O (stereo not shown) [compound 112]	No	106	

Structure (SMILES)	Significant difference (p < 0.05) vs control group, amount of active GLP-1 secreted (Experiment 3, 10 mM)	Amount of active GLP-1 secreted (relative value to control group as 100), Average value [4]	other results
CC1NC(=O)C(CCC(=O)O)NC1=O (stereo not shown) [compound 113]	No	157	
N=C(N)NCCCC1NC(=O)CNC1=O (stereo not shown) [compound 117]	No	98	
CC1NC(=O)C(CC(N)=O)NC1=O (stereo not shown) [compound 124]	No	116	
NC(=O)CCC1NC(=O)CNC1=O (stereo not shown) [compound 126]	Yes	210	
NC(=O)CC1NC(=O)C(CCC(=O)O)NC1=O (stereo not shown) [compound 129]	No	118	
NC(=O)CCC1NC(=O)C(CCC(=O)O)NC1=O (stereo not shown) [compound 130]	No	120	
NC(=O)CCC1NC(=O)C(CO)NC1=O (stereo not shown) [compound 136]	No	251	
CC1NC(=O)C(CC(=O)O)NC1=O (stereo not shown) [compound 153]	No	94	
O=C1CNC(=O)C(CO)N1 (stereo not shown) [compound 154]	No	116	
N=C(N)NCCCC1NC(=O)C(CO)NC1=O (stereo not shown) [compound 159]	Yes	135	
CC(O)C1NC(=O)C(CC(=O)O)NC1=O (stereo not shown) [compound 165]	No	140	
CC(O)C1NC(=O)C(CC(N)=O)NC1=O (stereo not shown) [compound 166]	No	149	
CC(O)C1NC(=O)C(CCC(N)=O)NC1=O (stereo not shown) [compound 167]	No	156	
CC(O)C1NC(=O)C(CCCNC(=N)N)NC1=O (stereo not shown) [compound 168]	No	142	
NC(=O)CC1NC(=O)C(CC(=O)O)NC1=O (stereo not shown) [compound 170]	No	125	
CSCCC1NC(=O)C(CCC(N)=O)NC1=O (stereo not shown) [compound 186]			Significant difference (p < 0.05) vs control group, amount of active GLP-1 secreted (Experiment 4, 10 mM): Yes; Amount of active GLP-1 secreted (relative value to control group as 100), Average value [5]: 191
N=C(N)NCCCC1NC(=O)C(Cc2c[nH]c3ccccc23)NC1=O (stereo not shown) [compound 189]			Significant difference (p < 0.05) vs control group, amount of active GLP-1 secreted (Experiment 4, 10 mM): Yes; Amount of active GLP-1 secreted (relative value to control group as 100), Average value [5]: 314
O=C(O)CCC1NC(=O)C(CO)NC1=O (stereo not shown) [compound 192]			Amount of active GLP-1 secreted (relative value to control group as 100), Average value [5]: 993
N=C(N)NCCCC1NC(=O)C(CC(N)=O)NC1=O (stereo not shown) [compound 197]			Significant difference (p < 0.05) vs control group, amount of active GLP-1 secreted (Experiment 4, 10 mM): Yes; Amount of active GLP-1 secreted (relative value to control group as 100), Average value [5]: 359
N=C(N)NCCCC1NC(=O)C(CCCNC(=N)N)NC1=O (stereo not shown) [compound 212]			Significant difference (p < 0.05) vs control group, amount of active GLP-1 secreted (Experiment 4, 10 mM): Yes; Amount of active GLP-1 secreted (relative value to control group as 100), Average value [5]: 1050
